# Legend:
# Assay type in all cases: biochemical
# [1] = target: T1, Hordeum HPPD variant V212L (Hordeum vulgare, UniProt O48604, A164G/R146V/R147D/R148G/V212L); assay: HPPD activity assay, Hordeum HPPD mutant V212L; details: normalized on Hordeum wild-type HPPD
# T1 construct: His (N); made in house; host or cells: E. coli BL21 (DE3)
# Experimental: (§1) HPPD produces homogentisic acid and CO2 from 4-hydroxyphenylpyruvate (4-HPP) and O2. The activity assay for HPPD is based on the analysis of homogentisic acid by reversed phase HPLC.
# (§2) The assay mixture can contain 150 mM potassium phosphate buffer pH 7.0, 50 mM L-ascorbic acid, 1 μM FeSO4 and 7 μg of purified enzyme in a total volume of 1 ml.
# (§3) Inhibitors are dissolved in DMSO (dimethylsulfoxide) to a concentration of 20 mM or 0.5 mM, respectively. From this stock solution serial five-fold dilutions are prepared in DMSO, which are used in the assay. The respective inhibitor solution accounts for 1% of the assay volume. […] After a preincubation of 30 min the reaction is started by adding 4-HPP to a final concentration of 0.1 mM. The reaction is allowed to proceed for 120 min at room temperature. The reaction is stopped by addition of 100 μl of 4.5 M phosphoric acid.
# (§4) Activities are normalized by setting the uninhibited enzyme activity to 100%. IC50 values are calculated using non-linear regression.
# (§5) The assay mixture can contain 150 mM potassium phosphate buffer pH 7.0, 50 mM L-ascorbic acid, 100 μM Catalase (Sigma-Aldrich), 1 μM FeSO4 and 0.2 units of purified HPPD enzyme in a total volume of 505 μl. 1 unit is defined as the amount of enzyme that is required to produce 1 nmol of HGA per minute at 20° C.
# (§6) Inhibitors are dissolved in DMSO (dimethylsulfoxide) to a concentration of 0.5 mM. From this stock solution serial five-fold dilutions are prepared in DMSO, which are used in the assay. The respective inhibitor solution accounts for 1% of the assay volume. […] Activities are normalized by setting the uninhibited enzyme activity to 100%. IC50 values are calculated using non-linear regression.
# (§7) Purified, mutant HPPD enzymes are obtained by the methods described above. Dose response and kinetic measurements are carried out using the described HPPD activity assay. Apparent michaelis constants (Km) and maximal reaction velocities (Vmax) are calculated by non-linear regression with the software GraphPad Prism 5 (GraphPad Software, La Jolla, USA) using a substrate inhibition model.
# (§8) Field performance of the optimized HPPD enzyme, which is used as a herbicide tolerance trait may depend not only on its lack of sensitivity towards HPPD inhibiting herbicides but also on its activity. To assess the potential performance of a herbicide tolerance trait a tolerance index (TI) is calculated using the following formula: […]
# (§9) Easy comparison and ranking of each trait is enabled by normalizing tolerance indexes on Arabidopsis or Hordeum wild-type HPPD.
# [2] = target: T2, Hordeum HPPD variant L334E (Hordeum vulgare, UniProt O48604, A164G/L334E/R146V/R147D/R148G); assay: HPPD activity assay, Hordeum HPPD mutant L334E; details: normalized on Hordeum wild-type HPPD
# T2 construct: His (N); made in house; host or cells: E. coli BL21 (DE3)
# T2 sequence (O48604 whole entry R146V/R147D/R148G/A164G/L334E): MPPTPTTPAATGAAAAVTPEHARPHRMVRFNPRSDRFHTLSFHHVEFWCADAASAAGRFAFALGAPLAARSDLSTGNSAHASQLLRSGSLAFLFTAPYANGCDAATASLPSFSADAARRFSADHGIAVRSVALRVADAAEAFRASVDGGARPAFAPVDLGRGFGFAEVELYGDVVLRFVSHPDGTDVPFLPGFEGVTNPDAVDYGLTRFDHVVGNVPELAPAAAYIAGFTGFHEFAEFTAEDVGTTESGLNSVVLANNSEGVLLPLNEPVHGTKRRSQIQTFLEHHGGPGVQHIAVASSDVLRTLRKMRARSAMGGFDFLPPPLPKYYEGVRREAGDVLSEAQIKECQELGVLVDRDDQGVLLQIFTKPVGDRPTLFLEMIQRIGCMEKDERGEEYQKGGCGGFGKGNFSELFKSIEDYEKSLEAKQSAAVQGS
# Experimental: as §1, §2, §3, §4, §5, §6, §7, §8, §9
# [3] = target: T3, Hordeum HPPD variant L320H (Hordeum vulgare, UniProt O48604, A164G/L320H/R146V/R147D/R148G); assay: HPPD activity assay, Hordeum HPPD mutant L320H; details: normalized on Hordeum wild-type HPPD
# T3 construct: His (N); made in house; host or cells: E. coli BL21 (DE3)
# T3 sequence (O48604 whole entry R146V/R147D/R148G/A164G/L320H): as the sequence (O48604 whole entry R146V/R147D/R148G/A164G/L334E) above, with L320H, E334L counted along it
# Experimental: as §1, §2, §3, §4, §5
# (§10) Inhibitors are dissolved in DMSO (dimethylsulfoxide) to a concentration of 0.5 mM. […] IC50 values are calculated using non-linear regression.
# Purified, mutant HPPD enzymes are obtained by the methods described above. […] Apparent michaelis constants (Km) and maximal reaction velocities (Vmax) are calculated by non-linear regression with the software GraphPad Prism 5 (GraphPad Software, La Jolla, USA) using a substrate inhibition model.
# as §8
# Hordeum HPPD (SEQ ID: 2) = target: T4, Hordeum HPPD (SEQ ID: 2) (Hordeum vulgare, UniProt O48604, A164G/R146V/R147D/R148G); assay: HPPD activity assay, Hordeum wild-type HPPD; details: for tolerance index TI: not normalized
# T4 construct: His (N); made in house; host or cells: E. coli BL21 (DE3)
# T4 sequence (O48604 whole entry R146V/R147D/R148G/A164G): as the sequence (O48604 whole entry R146V/R147D/R148G/A164G/L334E) above, with E334L counted along it
# Experimental: as §1, §2, §3, §4, §5, §6
# (§11) Using methods which are described in the above examples or well known in the art, purified, recombinant wildtype HPPD enzymes are characterized with respect to their kinetic properties and sensitivity towards HPPD inhibiting herbicides. Apparent michaelis constants (Km) and maximal reaction velocities (Vmax) are calculated by non-linear regression with the software GraphPad Prism 5 (GraphPad Software, La Jolla, USA) using a substrate inhibition model.
# as §8, with “of the HPPD enzyme,” for “of the optimized HPPD enzyme,”, “herbicide tolerance trait, may depend” for “herbicide tolerance trait may depend”
# Rhodococcus HPPD2 = assay: HPPD activity assay, Rhodococcus HPPD2; details: normalized on Arabidopsis wild-type HPPD
# Experimental: as §1, §2
# (§12) Inhibitors are dissolved in DMSO (dimethylsulfoxide) to a concentration of 20 mM or 0.5 mM, respectively. From this stock solution serial five-fold dilutions are prepared in DMSO, which are used in the assay. The respective inhibitor solution accounts for 1% of the assay volume. Thus, final inhibitor concentrations range from 200 μM to 2.5 nM or from 5 μM to 63 pM, respectively. After a preincubation of 30 min the reaction is started by adding 4-HPP to a final concentration of 0.1 mM. The reaction is allowed to proceed for 120 min at room temperature. The reaction is stopped by addition of 100 μl of 4.5 M phosphoric acid.
# as §4
# (§13) The assay mixture can contain 150 mM potassium phosphate buffer pH 7.0, 50 mM L-ascorbic acid, 100 μM Catalase (Sigma-Aldrich), 1 μM FeSO4 and 0.2 units of purified HPPD enzyme in a total volume of 505 μl. […]
# as §10
# as §11, with “model. […] Weighted means (by standard error) of Km and […] values are calculated from at least three independent experiments. […]” for “model.”
# [4] = target: T5, Hordeum HPPD variant L320Q (Hordeum vulgare, UniProt O48604, A164G/L320Q/R146V/R147D/R148G); assay: HPPD activity assay, Hordeum HPPD mutant L320Q; details: normalized on Hordeum wild-type HPPD
# T5 construct: His (N); made in house; host or cells: E. coli BL21 (DE3)
# T5 sequence (O48604 whole entry R146V/R147D/R148G/A164G/L320Q): as the sequence (O48604 whole entry R146V/R147D/R148G/A164G/L334E) above, with L320Q, E334L counted along it
# Experimental: as §1, §2, §3, §4, §5, §6, §7, §8, §9
# [5] = target: T6, Hordeum HPPD variant L353M, P321R, V212I (Hordeum vulgare, UniProt O48604, L353M/P321R/V212I); assay: HPPD activity assay, Hordeum HPPD mutant L353M, P321R, V212I; details: normalized on Hordeum wild-type HPPD
# T6 construct: His (N); made in house; host or cells: E. coli BL21 (DE3)
# T6 sequence (O48604 whole entry R146V/R147D/R148G/A164G/V212I/P321R/L353M): as the sequence (O48604 whole entry R146V/R147D/R148G/A164G/L334E) above, with V212I, P321R, E334L, L353M counted along it
# Experimental: as §1, §2, §3, §4, §5, §6, §7, §8, §9
# Picrophilus HPPD = assay: HPPD activity assay, Picrophilus HPPD; details: normalized on Arabidopsis wild-type HPPD
# Experimental: as §1, §2, §12, §4, §13, §10
# as §11, with “model. […] Weighted means (by standard error) of Km and […] values are calculated from at least three independent experiments. […]” for “model.”
# [6] = target: T7, Hordeum HPPD variant L320H, P321A (Hordeum vulgare, UniProt O48604, L320H/P321A); assay: HPPD activity assay, Hordeum HPPD mutant L320H, P321A; details: normalized on Hordeum wild-type HPPD
# T7 construct: His (N); made in house; host or cells: E. coli BL21 (DE3)
# T7 sequence (O48604 whole entry R146V/R147D/R148G/A164G/L320H/P321A): as the sequence (O48604 whole entry R146V/R147D/R148G/A164G/L334E) above, with L320H, P321A, E334L counted along it
# Experimental: as §1, §2, §3, §4, §5, §6, §7, §8, §9
# Lolium HPPD = assay: HPPD activity assay, Lolium HPPD; details: normalized on Arabidopsis wild-type HPPD
# Experimental: as §1, §2, §12, §4, §5
# Inhibitors are dissolved in DMSO (dimethylsulfoxide) to a concentration of 0.5 mM. From this stock solution serial five-fold dilutions are prepared in DMSO, which are used in the assay. The respective inhibitor solution accounts for 1% of the assay volume. Thus, final inhibitor concentrations range from 5 μM to 320 pM, respectively. Activities are normalized by setting the uninhibited enzyme activity to 100%. IC50 values are calculated using non-linear regression.
# as §11, with “model. […] Weighted means (by standard error) of Km and […] values are calculated from at least three independent experiments. […]” for “model.”
# as §8, with “of the HPPD enzyme,” for “of the optimized HPPD enzyme,”, “herbicide tolerance trait, may depend” for “herbicide tolerance trait may depend”
# [7] = Hordeum HPPD Wildtype, normalized on Hordeum wild-type HPPD
# [8] = Hordeum HPPD, normalized on Arabidopsis wild-type HPPD
# T1 sequence (O48604 whole entry R146V/R147D/R148G/A164G/V212L): as the sequence (O48604 whole entry R146V/R147D/R148G/A164G/L334E) above, with V212L, E334L counted along it
smiles,measurement,setting,value
"CC1=NOC(c2c(Cl)ccc(C3=C(O)c4ncccc4C(C)(C)S3(=O)=O)c2Cl)C1 (stereo not shown) [Inhibitor 1, 7-[2,4-dichloro-3-(3-methyl-4,5-dihydroisoxazol-5-yl)phenyl]-5,5-dimethyl-6,6-dioxo-thiopyrano[4,3-b]pyridin-8-ol]",Normalized tolerance index TI,[1],0.8
same,Normalized tolerance index TI,[2],1.5
same,Normalized tolerance index TI,[3],8.5
same,Ki,Hordeum HPPD (SEQ ID: 2),6.6 nM
same,Normalized tolerance index TI,Hordeum HPPD (SEQ ID: 2); [7],1
same,Normalized tolerance index TI,Hordeum HPPD (SEQ ID: 2); [8],0.7
same,tolerance index TI,Hordeum HPPD (SEQ ID: 2); Hordeum HPPD,2.9E−3
same,Normalized tolerance index TI,Rhodococcus HPPD2,73
same,Normalized tolerance index TI,[4],2.1
same,Normalized tolerance index TI,[5],2.2
same,Normalized tolerance index TI,Picrophilus HPPD,283
same,Normalized tolerance index TI,[6],5.2
same,Normalized tolerance index TI,Lolium HPPD,4.2
"CC1(C)c2cccnc2C(O)=C(c2ccc(Cl)nc2Cl)S1(=O)=O [Inhibitor 2, 7-(2,6-dichloro-3-pyridyl)-5,5-dimethyl-6,6-dioxo-thiopyrano[4,3-b]pyridin-8-ol]",Normalized tolerance index TI,[1],1.1
same,Normalized tolerance index TI,[2],1.4
same,Normalized tolerance index TI,[3],2.7
same,Ki,Hordeum HPPD (SEQ ID: 2),4.9 nM
same,Normalized tolerance index TI,Hordeum HPPD (SEQ ID: 2); [7],1
same,Normalized tolerance index TI,Hordeum HPPD (SEQ ID: 2); [8],0.5
same,tolerance index TI,Hordeum HPPD (SEQ ID: 2); Hordeum HPPD,2.2E−3
same,Normalized tolerance index TI,Rhodococcus HPPD2,11.4
same,Normalized tolerance index TI,[4],0.7
same,Normalized tolerance index TI,[5],1.5
same,Normalized tolerance index TI,Picrophilus HPPD,86.4
same,Normalized tolerance index TI,[6],2.5
same,Normalized tolerance index TI,Lolium HPPD,1.8
"COCCOCc1c(Cl)ccc(C2=C(O)c3ncccc3C(C)(C)S2(=O)=O)c1Cl [Inhibitor 3, 7-[2,4-dichloro-3-(2-methoxyethoxymethyl)phenyl]-5,5-dimethyl-6,6-dioxo-thiopyrano[4,3-b]pyridin-8-ol]",Normalized tolerance index TI,[1],0.7
same,Normalized tolerance index TI,[2],1.5
same,Normalized tolerance index TI,[3],7.4
same,Normalized tolerance index TI,Hordeum HPPD (SEQ ID: 2); [7],1
same,Normalized tolerance index TI,Hordeum HPPD (SEQ ID: 2); [8],0
same,Normalized tolerance index TI,Rhodococcus HPPD2,2.1
same,Normalized tolerance index TI,[4],2.4
same,Normalized tolerance index TI,[5],1.9
same,Normalized tolerance index TI,Picrophilus HPPD,17.2
same,Normalized tolerance index TI,[6],4.8
same,Normalized tolerance index TI,Lolium HPPD,0.3

# Reference: US20140357487A1, “PLANTS HAVING INCREASED TOLERANCE TO HERBICIDES” (BASF SE, priority 2011, published 2014)
